Experiment [1] deals with KP1004 KPC-2. The experiment in a line: Biapenem potentiation (MPC@1), strain KP1004 KPC-2. Conditions: minimum BLI concentration inhibiting growth with biapenem 1 μg/mL; tested up to 40 μg/mL. The format is cell-based. The procedure: (§1) Biapenem was present in the test medium at 1 μg/mL. […] Table 3 summarizes the BLI potency of biapenem potentiation (MPC@1) for two strains overexpressing class A (KPC) and class D (OXA-48) carbapenemases. Biapenem MIC for each strain is also shown.

In another experiment the test system is KP1086 OXA-48. The experiment in a line: Biapenem potentiation (MPC@1), strain KP1086 OXA-48. Conditions: minimum BLI concentration inhibiting growth with biapenem 1 μg/mL; tested up to 40 μg/mL. The format is cell-based. The procedure: as §1
Experiment [2] deals with purified class A, C and D enzymes (β-lactamases) (Escherichia coli, UniProt Q9L5C7). The experiment in a line: biochemical. The format is biochemical.
Experiment [3] deals with purified class A, C and D enzymes (β-lactamases) (Klebsiella pneumoniae, UniProt Q6XEC0). The experiment in a line: biochemical. The format is biochemical.
Experiment [4] has as its target purified class A, C and D enzymes (β-lactamases) (Klebsiella pneumoniae, UniProt Q9F663). Description: biochemical. The format is biochemical.
In the next experiment the test system is ECL1002. Description: Aztreonam potentiation (MPC@4), strain ECL1002. Conditions: minimum BLI concentration inhibiting growth with aztreonam 4 μg/mL; tested up to 40 μg/mL.
The subject of another experiment is ec308 SHV-5. Description: Aztreonam potentiation (MPC@4), strain ec308 SHV-5. The following applies: minimum BLI concentration inhibiting growth with aztreonam 4 μg/mL; tested up to 40 μg/mL.
In another experiment the test system is ec302 TEM-10. The experiment in a line: Aztreonam potentiation (MPC@4), strain ec302 TEM-10. The following applies: minimum BLI concentration inhibiting growth with aztreonam 4 μg/mL; tested up to 40 μg/mL.
For experiment [5], the system named is KP1004 KPC-2. Description: Aztreonam potentiation (MPC@4), strain KP1004 KPC-2. The following applies: minimum BLI concentration inhibiting growth with aztreonam 4 μg/mL; tested up to 40 μg/mL.
For a further experiment, the system named is EC1010 CMY-6. The experiment in a line: Aztreonam potentiation (MPC@4), strain EC1010 CMY-6. The following applies: minimum BLI concentration inhibiting growth with aztreonam 4 μg/mL; tested up to 40 μg/mL.
In the next experiment the test system is KP1010 SHV-12. Description: Aztreonam potentiation (MPC@4), strain KP1010 SHV-12. Conditions: minimum BLI concentration inhibiting growth with aztreonam 4 μg/mL; tested up to 40 μg/mL.
The subject of the next experiment is KP1009 CTX-M-15. The experiment in a line: Aztreonam potentiation (MPC@4), strain KP1009 CTX-M-15. Conditions: minimum BLI concentration inhibiting growth with aztreonam 4 μg/mL; tested up to 40 μg/mL.
The subject of a further experiment is KP1005 CTX-M-14. The experiment in a line: Tigemonam potentiation (MPC@4), strain KP1005 CTX-M-14. The following applies: minimum BLI concentration inhibiting growth with tigemonam 4 μg/mL; tested up to 40 μg/mL.
The test system of the next experiment is AB1053 OXA-72. Description: Meropenem potentiation (MPC@8), strain AB1053 OXA-72. The format is cell-based, Acinetobacter baumannii. Conditions: minimum BLI concentration inhibiting growth with meropenem 8 μg/mL; tested up to 20 μg/mL.
The next experiment deals with AB1054 OXA-23. The experiment in a line: Meropenem potentiation (MPC@8), strain AB1054 OXA-23. Conditions: minimum BLI concentration inhibiting growth with meropenem 8 μg/mL; tested up to 20 μg/mL. The format is cell-based, Acinetobacter baumannii.
For experiment [6], the target named is T1, purified class A, C and D enzymes (β-lactamases) (Acinetobacter baumannii, UniProt Q9L4P2).
T1 construct: rows headed: Ki (OXA-23, NCF), uM; other: purified OXA-23; nitrocefin (NCF) as reporter substrate
Description: biochemical. Conditions: purified OXA-23; nitrocefin (NCF) as reporter substrate. The format is biochemical.

The target of experiment [7] is purified class A, C and D enzymes (β-lactamases) (Enterobacter cloacae, UniProt P05364). Description: biochemical. The format is biochemical.
Experiment [8] concerns the target T2, purified class A, C and D enzymes (β-lactamases) (Pseudomonas aeruginosa, UniProt P24735).
T2 construct: rows headed: Ki (Pa-AmpC, NCF), uM; other: purified Pa-AmpC; nitrocefin (NCF) as reporter substrate
Description: biochemical. The format is biochemical.

The mark [9] stands for this setting: purified OXA-48, nitrocefin (NCF) as reporter substrate.
[10] abbreviates: purified KPC-2, nitrocefin (NCF) as reporter substrate.

Structures are written as SMILES. Like-named read-outs stand apart in the source and are kept apart here.

Chain of purified class A, C and D enzymes (β-lactamases) (Enterobacter cloacae, UniProt P05364) (P05364 21-381): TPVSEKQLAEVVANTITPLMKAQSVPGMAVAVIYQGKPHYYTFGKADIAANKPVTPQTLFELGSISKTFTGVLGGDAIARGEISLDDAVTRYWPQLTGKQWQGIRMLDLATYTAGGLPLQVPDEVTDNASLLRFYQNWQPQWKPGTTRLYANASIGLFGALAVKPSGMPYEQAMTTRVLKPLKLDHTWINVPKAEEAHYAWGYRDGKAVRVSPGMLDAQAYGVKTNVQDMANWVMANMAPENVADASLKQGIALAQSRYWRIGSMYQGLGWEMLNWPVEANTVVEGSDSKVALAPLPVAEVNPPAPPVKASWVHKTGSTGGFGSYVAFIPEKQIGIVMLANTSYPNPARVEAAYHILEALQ
T1 sequence (Q9L4P2 whole entry): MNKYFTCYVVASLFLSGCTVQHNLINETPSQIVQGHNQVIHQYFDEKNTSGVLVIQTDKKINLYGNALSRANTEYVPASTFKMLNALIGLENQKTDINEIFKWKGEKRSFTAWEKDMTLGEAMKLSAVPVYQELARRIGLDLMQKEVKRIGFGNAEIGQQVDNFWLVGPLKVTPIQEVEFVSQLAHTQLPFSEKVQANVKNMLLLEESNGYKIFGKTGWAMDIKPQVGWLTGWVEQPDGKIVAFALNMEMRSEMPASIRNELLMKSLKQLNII
T2 sequence (P24735 whole entry): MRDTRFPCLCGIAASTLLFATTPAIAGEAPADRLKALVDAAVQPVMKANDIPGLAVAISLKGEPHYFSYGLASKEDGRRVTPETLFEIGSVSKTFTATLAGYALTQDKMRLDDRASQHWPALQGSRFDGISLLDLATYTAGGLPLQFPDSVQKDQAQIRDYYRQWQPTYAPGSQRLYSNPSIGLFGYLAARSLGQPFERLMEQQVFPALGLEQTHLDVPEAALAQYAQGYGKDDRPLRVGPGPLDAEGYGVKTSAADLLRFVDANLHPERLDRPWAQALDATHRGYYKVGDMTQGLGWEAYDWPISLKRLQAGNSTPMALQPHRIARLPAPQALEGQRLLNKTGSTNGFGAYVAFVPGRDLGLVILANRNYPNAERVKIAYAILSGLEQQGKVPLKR
Chain of purified class A, C and D enzymes (β-lactamases) (Escherichia coli, UniProt Q9L5C7) (Q9L5C7 entry or part of it): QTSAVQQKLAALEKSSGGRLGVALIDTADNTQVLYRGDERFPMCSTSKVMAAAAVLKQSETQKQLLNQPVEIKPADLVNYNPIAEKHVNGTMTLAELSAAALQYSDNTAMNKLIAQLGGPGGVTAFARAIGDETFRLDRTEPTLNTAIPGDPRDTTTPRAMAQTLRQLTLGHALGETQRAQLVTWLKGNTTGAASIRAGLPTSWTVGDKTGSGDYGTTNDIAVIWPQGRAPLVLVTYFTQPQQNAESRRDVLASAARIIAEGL

For `O=C(O)[C@H]1/C(=C/CO)O[C@@H]2CC(=O)N21` [Clavulanic Acid, reference compound], the “BPM MPC1 KP1004 KPC-2” value with KP1004 KPC-2 [1] is on record as “Y (Y = 5 μg/mL < MPC@1 ≤ 20 μg/mL)”. Moreover, the “BPM MPC1 OXA-48 KP1086” value in the experiment with KP1086 OXA-48 was “Z (Z = MPC@1 > 20 μg/mL)”. For the same molecule, the “Ki (CTX-M-14, NCF), uM” value in experiment [2] is given as “X (key: X = Ki ≤ 0.1 μM; Y = 0.1 μM < Ki ≤ 1 μM; Z = Ki > 1 μM)”. In addition, in experiment [3], the “Ki (OXA-48, NCF), uM” value is listed as “Z (key: X = Ki ≤ 0.1 μM; Y = 0.1 μM < Ki ≤ 1 μM; Z = Ki > 1 μM)”. Moreover, in experiment [4], the “Ki (KPC-2, NCF), uM” value was “Z (key: X = Ki ≤ 0.1 μM; Y = 0.1 μM < Ki ≤ 1 μM; Z = Ki > 1 μM)”. Further, the “AZT MPC4 ECL1002” value with ECL1002 is “Z (Z = MPC@4 > 20 μg/mL)”. In the experiment on ec308 SHV-5, the “AZT MPC4 SHV-5 ec308” value was “X (X = MPC@4 ≤ 5 μg/mL)”. The “AZT MPC4 TEM-10 ec302” value in the experiment on ec302 TEM-10 is listed as “X (X = MPC@4 ≤ 5 μg/mL)”. In addition, in the experiment with KP1004 KPC-2 [5], the “AZT MPC4 KPC-2 KP1004” value was “Z (Z = MPC@4 > 20 μg/mL)”. Also, the “AZT MPC4 CMY-6 EC1010” value in the experiment with EC1010 CMY-6 is “Z (Z = MPC@4 > 20 μg/mL)”. Moreover, the “AZT MPC4 SHV-12 KP1010” value in the experiment with KP1010 SHV-12 was “X (X = MPC@4 ≤ 5 μg/mL)”. For the same molecule, in the experiment on KP1009 CTX-M-15, the “AZT MPC4 CTX-M-15 KP1009” value is recorded as “X (X = MPC@4 ≤ 5 μg/mL)”. Also, in the experiment with KP1005 CTX-M-14, the “TIG MPC4 CTX-M-14 KP1005” value is reported as “X (X = MPC@4 ≤ 5 μg/mL)”.
Consider `COCC#CCOc1ccc2c(c1C(=O)[O-])O[B-](O)(O)CC2.[Na+].[Na+]` [Compound 31, Disodium; 4,4-dihydroxy-8-(4-methoxybut-2-ynoxy)-5-oxa-4-boranuidabicyclo[4.4.0]deca-1(6),7,9-triene-7-carboxylate], for which, in the experiment on KP1004 KPC-2 [1], the “BPM MPC1 KP1004 KPC-2” value is listed as “X (X = MPC@1 ≤ 5 μg/mL)”. In the experiment on KP1086 OXA-48, the “BPM MPC1 OXA-48 KP1086” value is “X (X = MPC@1 ≤ 5 μg/mL)”. The “MPM MPC8 AB1053 OXA-72” value in the experiment on AB1053 OXA-72 is listed as “X (X = MPC@1 ≤ 5 μg/mL)”. Besides, in the experiment on AB1054 OXA-23, the “MPM MPC8 AB1054 OXA-23” value was “X (X = MPC@1 ≤ 5 μg/mL)”. Also, the inhibitory constant (Ki) in experiment [6] and in [8] was below 100 nM throughout. In addition, in [7], the “Ki (P99, NCF), uM” value is “X (key: X = Ki ≤ 0.1 μM; Y = 0.1 μM < Ki ≤ 1 μM; Z = Ki > 1 μM)”. Further, the “Ki (OXA-48, NCF), uM” value in [3] (setting [9]) is reported as “X (X = Ki ≤ 0.1 μM)”. In addition, in experiment [4] (setting [10]), the “Ki (KPC-2, NCF), uM” value is “X (X = Ki ≤ 0.1 μM)”. In the experiment on ECL1002, the “AZT MPC4 ECL1002” value is “X (X = MPC@4 ≤ 5 μg/mL)”. For the same molecule, the “AZT MPC4 SHV-5 ec308” value with ec308 SHV-5 is on record as “X (X = MPC@4 ≤ 5 μg/mL)”. Further, the “AZT MPC4 TEM-10 ec302” value in the experiment on ec302 TEM-10 was “Y (Y = 5 μg/mL < MPC@4 ≤ 20 μg/mL)”. The “AZT MPC4 KPC-2 KP1004” value in the experiment with KP1004 KPC-2 [5] is listed as “X (X = MPC@4 ≤ 5 μg/mL)”. In addition, the “AZT MPC4 CMY-6 EC1010” value in the experiment with EC1010 CMY-6 was “X (X = MPC@4 ≤ 5 μg/mL)”. Also, the “AZT MPC4 SHV-12 KP1010” value in the experiment with KP1010 SHV-12 is given as “X (X = MPC@4 ≤ 5 μg/mL)”. The “AZT MPC4 CTX-M-15 KP1009” value in the experiment on KP1009 CTX-M-15 is reported as “Y (Y = 5 μg/mL < MPC@4 ≤ 20 μg/mL)”. For the same molecule, in the experiment with KP1005 CTX-M-14, the “TIG MPC4 CTX-M-14 KP1005” value is “Y (Y = 5 μg/mL < MPC@4 ≤ 20 μg/mL)”.
As for `CSc1ccc2c(c1C(=O)[O-])O[B-](O)(O)CC2.[Na+].[Na+]` [Compound 36, Disodium; 4,4-dihydroxy-8-methylsulfanyl-5-oxa-4-boranuidabicyclo[4.4.0]deca-1(6),7,9-triene-7-carboxylate], in the experiment on KP1004 KPC-2 [1], the “BPM MPC1 KP1004 KPC-2” value is given as “X (X = MPC@1 ≤ 5 μg/mL)”. Moreover, the “BPM MPC1 OXA-48 KP1086” value in the experiment on KP1086 OXA-48 was “X (X = MPC@1 ≤ 5 μg/mL)”. For the same molecule, in the experiment with AB1053 OXA-72, the “MPM MPC8 AB1053 OXA-72” value is “Y (Y = 5 μg/mL < MPC@1 ≤ 20 μg/mL)”. Also, in the experiment with AB1054 OXA-23, the “MPM MPC8 AB1054 OXA-23” value is “X (X = MPC@1 ≤ 5 μg/mL)”. In addition, the Ki in experiment [6] and in experiment [8] was below 100 nM each time. In [7], the “Ki (P99, NCF), uM” value was “X (key: X = Ki ≤ 0.1 μM; Y = 0.1 μM < Ki ≤ 1 μM; Z = Ki > 1 μM)”. The “Ki (OXA-48, NCF), uM” value in [3] (setting [9]) is listed as “X (X = Ki ≤ 0.1 μM)”. Moreover, the “Ki (KPC-2, NCF), uM” value in experiment [4] (setting [10]) is “X (X = Ki ≤ 0.1 μM)”. Moreover, the “AZT MPC4 ECL1002” value in the experiment on ECL1002 is listed as “X (X = MPC@4 ≤ 5 μg/mL)”. In addition, the “AZT MPC4 SHV-5 ec308” value in the experiment with ec308 SHV-5 is “X (X = MPC@4 ≤ 5 μg/mL)”. In addition, in the experiment with ec302 TEM-10, the “AZT MPC4 TEM-10 ec302” value is recorded as “X (X = MPC@4 ≤ 5 μg/mL)”. Moreover, the “AZT MPC4 KPC-2 KP1004” value with KP1004 KPC-2 [5] is reported as “X (X = MPC@4 ≤ 5 μg/mL)”. Moreover, the “AZT MPC4 CMY-6 EC1010” value in the experiment on EC1010 CMY-6 was “X (X = MPC@4 ≤ 5 μg/mL)”. Moreover, the “AZT MPC4 SHV-12 KP1010” value in the experiment on KP1010 SHV-12 is given as “X (X = MPC@4 ≤ 5 μg/mL)”. The “AZT MPC4 CTX-M-15 KP1009” value with KP1009 CTX-M-15 is on record as “Y (Y = 5 μg/mL < MPC@4 ≤ 20 μg/mL)”. For the same molecule, the “TIG MPC4 CTX-M-14 KP1005” value in the experiment with KP1005 CTX-M-14 is “Y (Y = 5 μg/mL < MPC@4 ≤ 20 μg/mL)”.

Values taken from patent publication US10618918B2, “Substituted boronic acids as antimicrobials” (priority 2015, dated 2020).
